Experimental data reported in patent publication US7700566B2, “Mosquito control method” (priority 2006, dated 2010).

Test system: Aedes albopictus (Asian Tiger Mosquito) larvae
Test: Larval development of Aedes albopictus in sugar-containing aqueous environment
Type: in vivo
Conditions: single sugar
Method: The combinations and ratios of sugars experimentally tested to date have been chosen to be generally equivalent to the combinations and ratios of sugars found in natural nectars. For example, a 5% tangerine nectar equivalent solution is created by dissolving approximately 6.2 grams of sucrose, approximately 1.9 grams of dextrose (glucose) and approximately 1.9 grams of fructose in 200 ml of water. This provides a solution that is approximately 3.1% sucrose, approximately 0.95% dextrose and approximately 0.95% fructose. A 5% strawberry nectar equivalent solution is created by dissolving approximately 0.7 grams of sucrose, approximately 5.3 grams of dextrose (glucose) and approximately 4.0 grams of fructose in 200 ml of water. This provides a solution that is approximately 0.35% sucrose, approximately 2.65% dextrose and approximately 2.0% fructose. A 5% white mangrove nectar equivalent solution is created by dissolving approximately 2.2 grams of sucrose, approximately 3.2 grams of dextrose (glucose) and approximately 4.6 grams of fructose in 200 ml of water. This provides a solution that is approximately 1.1% sucrose, approximately 01.6% dextrose and approximately 2.3% fructose. The three sugars sucrose, dextrose and fructose were also tested independently in 5% aqueous solutions. Lower concentrations of 0.5%, 1.0% and above of the nectar equivalent solutions and independent sugars were also prepared and tested.
In tests using Aedes albopictus (Asian Tiger Mosquito) or Aedes aegypti (Yellow Fever Mosquito) larvae, 5% solutions of each of the tangerine, strawberry and white mangrove nectar equivalent solutions were independently produced using either phosphate buffered saline or pure water in conjunction with the sugars to create the aqueous environments. Larvae were then introduced into the 5% solution aqueous environments in varying numbers. […] In a further test, liver powder was added to the various solutions above as a nutrient to spur larval development.

SMILES	larvae emerged as adults (0.5% solution)	larval development past the second instar stage (5% solution)	larvae emerged as adults (5% solution)
O=C(CO)[C@@H](O)[C@H](O)[C@H](O)CO [fructose]	100%	no larvae developed past the second instar stage	
OC[C@H]1O[C@@](CO)(O[C@H]2O[C@H](CO)[C@@H](O)[C@H](O)[C@H]2O)[C@@H](O)[C@@H]1O [sucrose]	77%		13%
